From patent US10221144B2, “Antibacterial compounds having broad spectrum of activity” (priority 2014, dated 2019)
Read-outs that look alike come from different tables or passages of the source.

How the values were obtained:
Format in all cases: biochemical
[1] = target: T1, E. coli Topoisomerase IV (Escherichia coli, UniProt P0AFI2+P20083); assay: Topoisomerase IV decatenation assay (E. coli); conditions: for % inhibition Topo IV / inhibition at 100 µM: conc. 100 μM; for % inhibition Topo IV / inhibition at 200 µM / inhibition at 100 µM: n/a = not active; for inhibition at 200 µM: conc. 200 μM; for inhibition at 200 µM / inhibition at 100 µM: read-out: % inhibition Topo IV
T1 construct: purchased Inspiralis, UK
T1 sequence (P20083 whole entry): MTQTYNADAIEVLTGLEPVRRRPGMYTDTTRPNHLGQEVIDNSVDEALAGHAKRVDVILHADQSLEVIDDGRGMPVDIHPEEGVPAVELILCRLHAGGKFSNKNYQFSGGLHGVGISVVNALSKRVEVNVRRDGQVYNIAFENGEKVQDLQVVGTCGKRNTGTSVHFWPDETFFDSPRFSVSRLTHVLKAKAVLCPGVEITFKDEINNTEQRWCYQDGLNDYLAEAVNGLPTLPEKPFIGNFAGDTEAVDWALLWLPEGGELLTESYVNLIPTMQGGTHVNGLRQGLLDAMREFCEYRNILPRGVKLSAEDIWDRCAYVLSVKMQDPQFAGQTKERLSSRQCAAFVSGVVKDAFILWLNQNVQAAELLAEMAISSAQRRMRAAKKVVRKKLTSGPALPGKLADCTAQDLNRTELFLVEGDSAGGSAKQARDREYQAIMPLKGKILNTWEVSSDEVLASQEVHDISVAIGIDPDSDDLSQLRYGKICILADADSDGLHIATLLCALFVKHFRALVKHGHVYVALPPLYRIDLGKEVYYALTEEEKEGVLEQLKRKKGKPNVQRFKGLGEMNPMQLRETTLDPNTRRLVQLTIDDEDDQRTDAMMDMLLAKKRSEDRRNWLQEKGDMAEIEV
T1 sequence (P0AFI2 whole entry): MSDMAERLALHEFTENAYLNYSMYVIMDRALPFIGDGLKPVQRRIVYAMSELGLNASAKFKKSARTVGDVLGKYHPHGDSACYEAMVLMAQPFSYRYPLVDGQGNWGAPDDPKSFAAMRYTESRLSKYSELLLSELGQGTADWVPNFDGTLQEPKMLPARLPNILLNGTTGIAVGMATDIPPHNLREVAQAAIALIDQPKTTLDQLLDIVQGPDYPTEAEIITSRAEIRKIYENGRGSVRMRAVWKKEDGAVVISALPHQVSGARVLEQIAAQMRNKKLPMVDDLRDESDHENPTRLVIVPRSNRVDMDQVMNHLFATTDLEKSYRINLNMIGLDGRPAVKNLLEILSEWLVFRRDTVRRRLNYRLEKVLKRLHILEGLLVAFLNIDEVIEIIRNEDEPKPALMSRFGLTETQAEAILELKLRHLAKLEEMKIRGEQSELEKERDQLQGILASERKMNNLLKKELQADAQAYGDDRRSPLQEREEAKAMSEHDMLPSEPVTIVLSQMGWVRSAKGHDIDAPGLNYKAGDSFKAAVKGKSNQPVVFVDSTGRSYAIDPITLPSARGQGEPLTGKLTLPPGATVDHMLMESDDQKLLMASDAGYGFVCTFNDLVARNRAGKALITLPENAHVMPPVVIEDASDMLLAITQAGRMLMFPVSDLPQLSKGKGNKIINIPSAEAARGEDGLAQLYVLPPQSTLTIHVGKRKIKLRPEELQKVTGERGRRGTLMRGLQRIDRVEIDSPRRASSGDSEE
Experimental: (§1) The above compounds were tested for the inhibition of the enzyme DNA gyrase in a gyrase supercoiling assay and for the inhibition of the enzyme topoisomerase IV in a decatenation assay, in both Gram positive and Gram negative bacteria, according to the following methods.
(§2) Both the assays were carried out according to a set-up method modified from the article to Blanche F, et al. “Differential Behaviors of Staphylococcus aureus and Escherichia coli Type II DNA Topoisomerases”, Antimicrob. Agents Chemother., 1996, Vol. 40, No. 12 p. 2714-2720.
(§3) The compounds were screened at single concentration (200, 100 or 50 μM), in duplicate.
S. aureus and E. coli Topoisomerase IV decatenation kits (Inspiralis, UK) were used. A master mix with a total volume sufficient for the number of reactions to perform was prepared with the following reagents: 5× assay buffer (50 mM HEPES-KOH (pH 7.6), 100 mM potassium glutamate, 10 mM magnesium acetate, 10 mM DTT, 1 mM ATP, 50 μg/ml albumin), kDNA substrate (200 ng/reaction), RNase-DNase free water. Aliquots of this mix were dispensed in each tube, then 10× compound stock solutions or vehicle control (DMSO), were added in each reaction tube.
Reaction was started with Topoisomerase IV enzyme (0.5 U/reaction) addition.
(§4) A sample added with an equal volume of dilution buffer was used as negative control (without enzyme).
The reaction tubes were gentle vortexed and incubated 30 minutes at 37° C. Each reaction was stopped by adding 30 μl of Stop Buffer and 30 μl of chloroform/isoamyl alcohol (24/1), briefly vortexed for 5-10 seconds and centrifuged at 20000×g for 2 minutes. Samples taken from the upper phase were loaded into 1% agarose gel and subjected to electrophoresis for 1 hour at 80V constant voltage in TAE (40 mM Tris-acetate, 2 mM EDTA).
Data acquisition and analysis. Due to the high molecular mass, kDNA could not enter an agarose gel under normal electrophoresis conditions, but remained in the wells. In the presence of Topo IV topoisomerase mini-circles (2.5 Kb) were released from kDNA by decatenation and were quickly and easily resolved in the gel at relatively high voltages.
Bands were visualized by ethidium bromide staining (dil 1:20000) for 30 minutes followed by destaining in distilled water for 10 minutes.
For single concentration screening assay, in order to evaluate the compounds activity on the enzymes, the bands of decatenated DNAs in the gel were photographed by a digital imaging system ImageQuant LAS 4000 (GE Healthcare) according to manufacturer's instructions.
(§5) The fluorescent intensity of each band was analyzed by ImageQuant TL software and it was expressed as volume (volume of the uncalibrated quantity of material in the image feature after subtraction of the background intensity by using rolling ball method).
(§6) Each band intensity was compared, as percentage, to vehicle sample band intensity, which served as positive control, on the same gel.
(§7) Inhibitory activity was expressed as percent of inhibition versus the positive control.
(§8) The supercoiled or decatenated DNA bands obtained as described in Example 1 were analysed as follows.
(§9) Bands were analyzed by gel documentation equipment (Syngene, Cambridge, UK) and quantitated using Syngene Gene Tools software. Raw gel data (fluorescent band volumes) collected from Syngene, GeneTools gel analysis software were converted to a percentage of the 100% control (the fully supercoiled or decatenated DNA band). […] The IC50 data were calculated by using the global curve fit non-linear regression tool by selecting the Single, 2 Parameter fit function from the Exponential Decay equation category.

[2] = target: T2, S. aureus DNA gyrase (Staphylococcus aureus, UniProt P0A0K8+P20831); assay: DNA gyrase supercoiling assay (S. aureus); conditions: for % inhibition DNA gyrase / inhibition at 100 µM: conc. 100 μM; for % inhibition DNA gyrase / inhibition at 200 µM / inhibition at 100 µM: n/a = not active; for inhibition at 200 µM: conc. 200 μM
T2 construct: purchased Inspiralis, UK
T2 sequence (P0A0K8 whole entry): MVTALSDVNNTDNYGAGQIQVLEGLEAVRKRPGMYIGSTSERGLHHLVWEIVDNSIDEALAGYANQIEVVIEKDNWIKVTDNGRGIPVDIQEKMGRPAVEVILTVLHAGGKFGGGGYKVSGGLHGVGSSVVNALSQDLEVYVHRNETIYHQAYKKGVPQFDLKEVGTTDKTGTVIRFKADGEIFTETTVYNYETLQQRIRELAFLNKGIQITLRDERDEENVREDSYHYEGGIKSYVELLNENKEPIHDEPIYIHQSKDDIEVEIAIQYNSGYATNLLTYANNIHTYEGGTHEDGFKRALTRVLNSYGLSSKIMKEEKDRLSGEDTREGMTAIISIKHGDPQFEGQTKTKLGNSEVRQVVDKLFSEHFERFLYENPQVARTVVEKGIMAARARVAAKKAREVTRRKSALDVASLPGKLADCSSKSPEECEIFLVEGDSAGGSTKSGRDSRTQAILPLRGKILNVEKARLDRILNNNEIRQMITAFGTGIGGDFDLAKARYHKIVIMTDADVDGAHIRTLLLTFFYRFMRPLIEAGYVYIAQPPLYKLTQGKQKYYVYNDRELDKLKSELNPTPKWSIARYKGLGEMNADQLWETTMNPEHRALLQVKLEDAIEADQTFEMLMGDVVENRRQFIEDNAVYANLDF
T2 sequence (P20831 whole entry): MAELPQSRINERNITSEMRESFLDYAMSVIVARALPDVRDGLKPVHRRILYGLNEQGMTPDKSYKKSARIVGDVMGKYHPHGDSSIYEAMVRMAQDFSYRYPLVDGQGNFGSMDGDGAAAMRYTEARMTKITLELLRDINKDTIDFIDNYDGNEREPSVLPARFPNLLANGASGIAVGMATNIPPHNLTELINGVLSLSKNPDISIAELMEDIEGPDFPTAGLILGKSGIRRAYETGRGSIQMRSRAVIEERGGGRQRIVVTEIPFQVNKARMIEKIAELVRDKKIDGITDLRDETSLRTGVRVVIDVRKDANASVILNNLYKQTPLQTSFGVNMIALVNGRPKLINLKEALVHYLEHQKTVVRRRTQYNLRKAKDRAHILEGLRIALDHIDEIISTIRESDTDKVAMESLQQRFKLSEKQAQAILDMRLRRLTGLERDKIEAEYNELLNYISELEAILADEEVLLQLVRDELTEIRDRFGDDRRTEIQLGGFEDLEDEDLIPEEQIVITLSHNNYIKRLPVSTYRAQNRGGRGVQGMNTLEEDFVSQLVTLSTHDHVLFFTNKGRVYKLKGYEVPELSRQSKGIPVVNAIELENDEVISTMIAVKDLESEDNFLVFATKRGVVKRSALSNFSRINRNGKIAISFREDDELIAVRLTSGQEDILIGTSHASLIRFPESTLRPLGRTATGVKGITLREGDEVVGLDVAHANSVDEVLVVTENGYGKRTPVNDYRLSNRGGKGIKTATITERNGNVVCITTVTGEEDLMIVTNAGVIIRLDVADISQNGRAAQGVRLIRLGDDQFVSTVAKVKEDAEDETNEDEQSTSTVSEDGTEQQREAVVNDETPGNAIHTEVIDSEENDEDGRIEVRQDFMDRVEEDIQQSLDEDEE
Experimental: as §1, §2, §3
(§10) Reagents from S. aureus and E. coli Gyrase Supercoiling Assay kits (Inspiralis, UK) were used. A master mix with a total volume sufficient for the number of reactions to perform was prepared with the following reagents: 5× assay buffer, relaxed pBR322 substrate (0.5 μg/reaction), RNase-DNase free water. Aliquotes of this mix were dispensed in each tube, then 10× compound stock solutions or vehicle control (DMSO), were added to each reaction tube.
(§11) Reaction was started with E. Coli (2 U/reaction) or S. aureus (1 U/reaction) gyrase enzyme addition.
as §4
(§12) The reaction tubes were gentle vortexed and incubated 30 minutes at 37° C. Each reaction was stopped by adding 30 μl of Stop Buffer and 30 μl chloroform/isoamyl alcohol (24/1), briefly vortexed for 5-10 seconds and centrifuged at 20000×g for 2 minutes. Samples were loaded onto 1% agarose gel and subjected to electrophoresis for 1 hour at 80V constant voltage in TAE (40 mM Tris-acetate, 2 mM EDTA).
(§13) Data acquisition and analysis. Treatment of relaxed pBR322 with DNA gyrase converted the relaxed topoisomers (DNAs of different linking number) to the supercoiled form of the plasmid, which migrates faster on an agarose gel. An upper band might also be visible, which consists of open-circular (nicked) DNA which is present in the relaxed substrate but co-migrates with some of the relaxed topoisomers.
(§14) Bands were visualized by ethidium bromide staining (dilution 1:20000) for 30 minutes followed by destaining in distilled water for 10 minutes.
(§15) In order to evaluate the compounds activity on the enzyme, the bands of supercoiled DNAs in the gel were photographed by a digital imaging system ImageQuant LAS 4000 (GE Healthcare) according to manufacturer's instructions.
as §5, §6, §7, §8, §9

[3] = target: T3, E. coli DNA gyrase (Escherichia coli, UniProt P0AES4+P0AES6); assay: DNA gyrase supercoiling assay (E. coli); conditions: for % inhibition DNA gyrase / inhibition at 100 µM: conc. 100 μM; for % inhibition DNA gyrase / inhibition at 200 µM / inhibition at 100 µM: n/a = not active; for inhibition at 200 µM: conc. 200 μM
T3 construct: purchased Inspiralis, UK
T3 sequence (P0AES4 whole entry, one chain of several): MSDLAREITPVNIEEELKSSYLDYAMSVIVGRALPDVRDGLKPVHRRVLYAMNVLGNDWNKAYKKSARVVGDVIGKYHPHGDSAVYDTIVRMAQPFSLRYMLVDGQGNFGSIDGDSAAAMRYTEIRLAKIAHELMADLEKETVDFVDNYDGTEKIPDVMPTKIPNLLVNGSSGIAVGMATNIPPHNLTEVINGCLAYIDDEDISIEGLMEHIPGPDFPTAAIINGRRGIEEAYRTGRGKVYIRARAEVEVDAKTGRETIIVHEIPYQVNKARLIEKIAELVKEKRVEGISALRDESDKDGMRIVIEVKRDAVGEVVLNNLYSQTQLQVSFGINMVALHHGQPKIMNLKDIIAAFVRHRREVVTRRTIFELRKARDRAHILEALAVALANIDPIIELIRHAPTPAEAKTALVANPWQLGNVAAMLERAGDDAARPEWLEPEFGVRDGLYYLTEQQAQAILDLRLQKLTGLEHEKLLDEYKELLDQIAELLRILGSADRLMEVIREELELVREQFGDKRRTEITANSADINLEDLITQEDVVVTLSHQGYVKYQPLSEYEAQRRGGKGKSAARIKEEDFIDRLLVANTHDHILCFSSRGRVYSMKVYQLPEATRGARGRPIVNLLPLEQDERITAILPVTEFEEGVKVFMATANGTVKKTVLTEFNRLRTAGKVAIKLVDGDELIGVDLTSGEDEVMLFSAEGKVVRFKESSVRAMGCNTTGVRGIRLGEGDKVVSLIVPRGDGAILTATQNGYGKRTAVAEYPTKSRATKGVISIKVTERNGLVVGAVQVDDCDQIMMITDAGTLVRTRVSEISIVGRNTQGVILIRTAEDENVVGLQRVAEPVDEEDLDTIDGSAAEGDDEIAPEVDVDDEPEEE
Experimental: as §1, §2, §3, §10, §11, §4, §12, §13, §14, §15, §5, §6, §7, §8, §9

[4] = E. coli, concentration-response curve, eight half-log concentrations 0.1 to 300 μM, read-out: IC50 Topo IV
[5] = S. aureus, concentration-response curve, eight half-log concentrations 0.1 to 300 μM, read-out: IC50 DNA gyrase
[6] = E. coli, concentration-response curve, eight half-log concentrations 0.1 to 300 μM, read-out: IC50 DNA gyrase

Compound	% inhibition Topo IV ([1]; E. coli) [%]	% inhibition DNA gyrase ([3]; E. coli) [%]	inhibition at 200 µM ([1]; E. coli) [%]	inhibition at 200 µM ([3]; E. coli) [%]	IC50 [1] [µM]	IC50 [2] [µM]	IC50 [3] [µM]	further results
1,3-dichloroisoquinoline [Compound 66]	58	100						IC50 [1, 4]: 3.2 µM; % inhibition DNA gyrase ([2]; S. aureus): 87%; IC50 [2, 5]: 12.1 µM; IC50 [3, 6]: 2.3 µM
4-chloro-2H-chromen-2-one [Compound 63]	51	98						
5-chloro-1,6-naphthyridine [Compound 65]	80	94						IC50 [1, 4]: 29.3 µM; % inhibition DNA gyrase ([2]; S. aureus): 80%; IC50 [2, 5]: 26.8 µM; IC50 [3, 6]: 40.6 µM
O=c1cc(NC2CCN(CCCc3cccc4ocnc34)CC2)c2ccccc2o1 [Compound 27, 4-({1-[3-(1,3-benzoxazol-4-yl)propyl]piperidin-4-yl}amino)-2H-chromen-2-one]			53	61				
O=c1cc(NC2CCN(CCCc3nccc4ccccc34)CC2)c2ccccc2o1 [Compound 29, 4-({1-[3-(isoquinolin-1-yl)propyl]piperidin-4-yl}amino)-2H-chromen-2-one]			100	92	10	20	6	inhibition at 200 µM ([2]; S. aureus): 86%
O=C1Cc2cccc(CCCN3CCC(Nc4cc(=O)oc5ccccc45)CC3)c2N1 [Compound 40, 7-(3-{4-[(2-oxo-2H-chromen-4-yl)amino]piperidin-1-yl}propyl)-1,3-dihydro-2H-indol-2-one]			78	54				
c1ccc2c(N3CCN(CCCNCc4cc5c(cn4)OCS5)CC3)nccc2c1 [Compound 46, 3-[4-(isoquinolin-1-yl)piperazin-1-yl]-N-([1,3]oxathiolo-[5,4-c]pyridin-6-ylmethyl)propan-1-amine]			94	57				inhibition at 200 µM ([2]; S. aureus): 100%
O=c1cc(NCCCN2CCN(c3nccc4ccc(Cl)cc34)CC2)c2ccccc2o1 [Compound 51, 4-({3-[4-(7-chloroisoquinolin-1-yl)piperazin-1-yl]propyl}amino)-2H-chromen-2-one]					2.4	4.5	0.9	inhibition at 100 µM ([1]; E. coli): 88%; inhibition at 100 µM ([2]; S. aureus): 91%; inhibition at 100 µM ([3]; E. coli): 100%
O=c1cc(N[C@H]2C[C@H](N3CCN(c4nccc5ccccc45)CC3)C2)c2ccccc2o1 [Compound 55, trans-4-({3-[4-(isoquinolin-1-yl)piperazin-1-yl]cyclobutyl}amino)-2H-chromen-2-one]					2.6	5.6	2.1	inhibition at 100 µM ([1]; E. coli): 95%; inhibition at 100 µM ([2]; S. aureus): 86%; inhibition at 100 µM ([3]; E. coli): 94%
